Measured values published in patent US9732079B2, “Yellow reduced pyrroloquinoline quinone crystal and method of producing the same, and food, pharmaceutical, gel, composition and method of producing composition” (Mitsubishi Gas Chemical Company, Inc., priority 2013, dated 2017).

How the values were obtained:
Format in all cases: physicochemical
[1] = Test on solubility in ethanol; conditions: 40 mg in ethanol 2 mL, ultrasonically treated one minute, room temperature 30 minutes or more, absorbance at 330 nm
Experimental: [Test on Solubility in Ethanol]
(§1) The crystal (40 mg) obtained in Example 1 was added to ethanol (2 mL), and was ultrasonically treated for one minute. The solution was left at room temperature for 30 minutes or more, and thereafter the resulting precipitate was centrifuged and the resulting supernatant was diluted with dimethyl sulfoxide to analyze the concentration at an absorbance at 330 nm.
as §1, with “2” for “1”
as §1, with “obtained in Comparative Example 1” for “obtained in Example 1”, “330 nm. The concentration was 1.4 mg/ML.” for “330 nm.”

[2] = Dispersibility in ethanol: gelation test; conditions: for Homogeneity of ethanol mixture (upper and lower portions) / Appearance of ethanol mixture after standing: 20 mg in ethanol 2 mL; for Homogeneity of ethanol mixture (upper and lower portions): left at 20° C. for two to three hours; for Appearance of ethanol mixture after standing: ultrasonically treated one minute, left at 20° C. for two hours; for Appearance after adding ethanol mixture to water: 20 μL of gelled product / ethanol mixture added to water 1 mL
Experimental: [Dispersibility in Ethanol: Gelation Test]
The crystal (20 mg) obtained in Example 1 was added to ethanol (2 mL), and was ultrasonically treated for one minute. […] The gelled product was generated through the following process: the reduced PQQ crystals according to the present invention turned into fibers, and alcohol was encapsulated between these fibers in the form of a net to generate a gel.
The solid (20 mg) obtained in Comparative Example 1 was added to ethanol (2 mL), and was ultrasonically treated for one minute.

[3] = Test on solubility in water; conditions: 30 mg in water 1 mL, ultrasonically treated one minute, room temperature 30 minutes or more, absorbance at 310 nm
Experimental: [Test on Solubility in Water]
as §1, with “(30” for “(40”, “water (1” for “ethanol (2”, “water” for “dimethyl sulfoxide”, “310” for “330”, “nm. The concentration was 0.13 mg/mL.” for “nm.”
as §1, with “(30” for “(40”, “2” for “1”, “water (1” for “ethanol (2”, “water” for “dimethyl sulfoxide”, “310” for “330”, “nm. The concentration was 0.14 mg/mL.” for “nm.”
The solid (30 mg) obtained in Comparative Example 1 was added to water (1 mL), and was ultrasonically treated for one minute. The solution was left at room temperature for 30 minutes or more, and thereafter the resulting precipitate was centrifuged and the resulting supernatant was diluted with water to analyze the concentration at an absorbance at 310 nm. The concentration was 0.019 mg/mL.

[4] = Test on stability of crystal (dispersed in water); conditions: 0.2 g mixed with water 1 mL, room temperature
Experimental: [Test on Stability of Crystal (Dispersed in Water)]
The crystal (0.2 g) obtained in Example 1 was mixed with water (1 mL).
The solid (0.2 g) obtained in Comparative Example 1 was mixed with water (1 mL).
The crystal (0.2 g) obtained in Comparative Example 2 was mixed with water (1 mL).

| Solubility in ethanol (concentration of supernatant) [1] | Solubility in water (concentration of supernatant) [3] | Appearance dispersed in water after one hour [4] | Dispersibility (overall conclusion) ([2]; ethanol gelation test, compared with Comparative Example 1) | Compound | Homogeneity of ethanol mixture (upper and lower portions) [2] | Appearance of ethanol mixture after standing [2] | Appearance after adding ethanol mixture to water [2] | Appearance dispersed in water after two days [4] |
| --- | --- | --- | --- | --- | --- | --- | --- | --- |
|  |  | dark red dispersion |  | O=C(O)c1cc(C(=O)O)c2c(n1)c(O)c(O)c1cc(C(=O)O)[nH]c12 [Comparative Example 2, reduced pyrroloquinoline quinone] |  |  |  | a black precipitate was generated and the solution was not homogenous |
| 8.5 mg/mL | 0.13 mg/mL | yellow homogenous dispersion | significantly high dispersibility | O=C(O)c1cc(C(=O)O)c2c(n1)c(O)c(O)c1cc(C(=O)O)[nH]c12 [Example 1, reduced pyrroloquinoline quinone] | homogenous without any difference between upper and lower portions | orange gelled product | yellow homogenous dispersion | the dispersion remained the same |
| 3.2 mg/mL | 0.14 mg/mL |  |  | O=C(O)c1cc(C(=O)O)c2c(n1)c(O)c(O)c1cc(C(=O)O)[nH]c12 [Example 2, reduced pyrroloquinoline quinone] |  |  |  |  |

| Compound | Solubility in ethanol (concentration of supernatant) [1] | Solubility in water (concentration of supernatant) [3] | Appearance dispersed in water after one hour [4] | Dispersibility (overall conclusion) ([2]; ethanol gelation test, compared with Comparative Example 1) | Homogeneity of ethanol mixture (upper and lower portions) [2] | Appearance of ethanol mixture after standing [2] | Appearance after adding ethanol mixture to water [2] | Appearance dispersed in water after two days [4] |
| --- | --- | --- | --- | --- | --- | --- | --- | --- |
| O=C(O)c1cc(C(=O)O)c2c(n1)c(O)c(O)c1cc(C(=O)O)[nH]c12 [Comparative Example 1, reduced pyrroloquinoline quinone] | 1.4 mg/mL | 0.019 mg/mL | a solution having a black solid sedimented therein |  | had a difference between the upper and lower portions | a black solid was sedimented and the solution was slightly yellowed | a solution having a black solid sedimented therein |  |
